Source: patent US20240181068A1, “SELECTIVE NEUTRAL PH INHIBITOR OF CATHEPSIN B” (The Regents of the University of California, priority 2021, published 2024)

Tests used:
cathepsin C = target: T1, cathepsin C (Homo sapiens, UniProt P53634); experiment: Specificity of inhibitors: cathepsin C (Gly-Arg-AMC substrate); format: biochemical
T1 construct: purchased R&D Systems 1071-CY-010
Procedure: (§1) Specificity of inhibitors for other cysteine cathepsin proteases. The effects of Z-Arg-Lys-AOMK and Z-Glu-Lys-AOMK on cathepsin V, L, K, S, X, H and C activities were assessed. IC50 values were calculated at pH 4.6 and pH 7.2 conditions, consisting of 40 mM citrate phosphate, 1 mM EDTA, 100 mM NaCl, and 5 mM DTT. The inhibitor concentrations ranged from 16.38 μM to 256 nM with 2-fold serial dilutions. […] Cathepsin V (0.04 ng/μL), cathepsin L (0.03 ng/μL), cathepsin K (0.10 ng/μL), cathepsin S (0.20 ng/uL) were assayed with 40 μM Z-Phe-Arg-AMC. Cathepsin X (0.20 ng/uL), cathepsin C (0.51 ng/uL) and cathepsin H (0.1 ng/μL) were assayed with 40 μM of MCA-Arg-Pro-Pro-Gly-Phe-Ser-Ala-Phe-Lys(Dnp)OH (SEQ ID NO: 2), Gly-Arg-AMC, and Arg-AMC, respectively. Activation of pro-cathepsin H to cathepsin H was conducted by incubation of cathepsin H (4.4 ng/μL) with cathepsin L (1.1 ng/μL) at RT for 2 hrs in activation buffer (20 mM citrate phosphate pH 6.0, 100 mM NaCl, and 5 mM DTT). Cathepsin C (13.78 ng/μL) was activated by incubation with cathepsin L (3.4 ng/μL) at RT for one hr in activation buffer (20 mM citrate phosphate, pH 6.0, 100 mM NaCl, 5 mM DTT). […] For all assays containing peptide-AMC substrates the fluorescent microplate reader settings were the same as outlined above for cathepsin B. For the cathepsin X assay, the plate reader was set to excitation 320 nm, emission 400 nm, gain 105, top optics and read height 1 mm. To convert RFU/s to picomol/min, 10 μM to 0.005 μM (2-fold serial dilution) of MCA-Arg-Pro-Pro-Gly-Phe-Ser-Ala-Phe-Lys(Dnp)OH (SEQ ID NO: 2) was fully hydrolyzed with excess cathepsin X and a standard curve was generated using the total fluorescence values calculated at each concentration.

cathepsin H = target: T2, cathepsin H (Homo sapiens, UniProt P09668); experiment: Specificity of inhibitors: cathepsin H (Arg-AMC substrate); format: biochemical
T2 construct: purchased R&D Systems 75116-CY-010
T2 sequence (P09668 116-335 limits assumed, other chains not shown): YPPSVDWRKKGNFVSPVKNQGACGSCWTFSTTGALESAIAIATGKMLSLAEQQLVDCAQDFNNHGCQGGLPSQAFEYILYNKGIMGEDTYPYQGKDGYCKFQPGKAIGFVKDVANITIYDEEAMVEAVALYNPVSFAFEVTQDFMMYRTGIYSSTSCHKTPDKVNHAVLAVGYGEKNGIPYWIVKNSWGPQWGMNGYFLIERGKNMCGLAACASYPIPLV
Procedure: as §1

cathepsin K = target: T3, cathepsin K (Homo sapiens, UniProt P43235); experiment: Specificity of inhibitors: cathepsin K (Z-Phe-Arg-AMC substrate); format: biochemical
T3 construct: purchased Abcam ab157067
T3 sequence (P43235 115-329): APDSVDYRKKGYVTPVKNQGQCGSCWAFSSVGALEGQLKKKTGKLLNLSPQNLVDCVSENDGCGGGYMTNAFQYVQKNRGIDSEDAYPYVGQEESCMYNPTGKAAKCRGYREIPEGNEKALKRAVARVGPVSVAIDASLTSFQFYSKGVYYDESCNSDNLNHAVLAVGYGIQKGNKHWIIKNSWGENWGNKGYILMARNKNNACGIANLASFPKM
Procedure: as §1

cathepsin S = target: T4, cathepsin S (Homo sapiens, UniProt P25774); experiment: Specificity of inhibitors: cathepsin S (Z-Phe-Arg-AMC substrate); format: biochemical
T4 construct: purchased R&D Systems 1183-CY-010
T4 sequence (P25774 115-331): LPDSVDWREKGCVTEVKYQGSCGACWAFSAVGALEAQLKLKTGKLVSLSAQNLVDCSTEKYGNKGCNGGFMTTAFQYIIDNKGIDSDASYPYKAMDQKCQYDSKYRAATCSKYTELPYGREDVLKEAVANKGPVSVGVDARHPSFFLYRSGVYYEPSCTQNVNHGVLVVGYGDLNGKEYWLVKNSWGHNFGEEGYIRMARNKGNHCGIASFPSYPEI
Procedure: as §1

cathepsin V = target: T5, cathepsin V (Homo sapiens, UniProt O60911); experiment: Specificity of inhibitors: cathepsin V (Z-Phe-Arg-AMC substrate); format: biochemical
T5 construct: purchased R&D Systems 1080-CY-010
T5 sequence (O60911 114-334): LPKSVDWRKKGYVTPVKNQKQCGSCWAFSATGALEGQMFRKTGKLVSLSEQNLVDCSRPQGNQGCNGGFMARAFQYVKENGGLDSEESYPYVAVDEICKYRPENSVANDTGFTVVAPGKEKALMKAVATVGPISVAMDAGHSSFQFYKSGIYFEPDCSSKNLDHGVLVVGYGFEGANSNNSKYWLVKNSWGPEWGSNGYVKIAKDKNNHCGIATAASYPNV
Procedure: as §1

cathepsin X = cathepsin X (Homo sapiens, UniProt Q9UBR2); experiment: Specificity of inhibitors: cathepsin X (MCA peptide substrate); format: biochemical
cathepsin X, sequence (Q9UBR2 62-303): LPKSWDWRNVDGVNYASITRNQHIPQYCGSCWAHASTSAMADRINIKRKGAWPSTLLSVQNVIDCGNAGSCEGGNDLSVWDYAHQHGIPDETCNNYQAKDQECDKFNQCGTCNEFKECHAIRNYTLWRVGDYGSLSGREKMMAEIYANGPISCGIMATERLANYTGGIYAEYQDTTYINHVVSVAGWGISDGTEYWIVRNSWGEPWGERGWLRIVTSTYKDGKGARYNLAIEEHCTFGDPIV
Procedure: as §1

[1] = target: T6, cathepsin B in human neuroblastoma cells (SHSY5Y) (Homo sapiens, UniProt P07858); experiment: Neuroblastoma cells incubated with inhibitors, then cathepsin B assay; format: cell-based
T6 construct: endogenous in cells; host or cells: SH-SY5Y human neuroblastoma cells
Procedure: Cathepsin B in human neuroblastoma cells treated with inhibitors. Neuroblastoma cells (human SHSY5Y) were grown in media consisting of 50% MEMalpha, 50% F12-K, 10% heat-inactivated FBS at 37° C. in an atmosphere of 95% air and 5% CO2. Firstly, cell homogenates were prepared by collection of cells in 0.32 M sucrose and freeze-thawing. Secondly, cells were incubated with Z-Arg-Lys-AOMK or CA-074Me for 6 hours at 37° C., and washed 3 times in phosphate-buffered saline and homogenates were prepared in 0.32 M sucrose with freeze-thawing. CA-074Me is a methyl ester form of the active CA-074 selective inhibitor of cathepsin B (70); CA-074Me penetrates the cell and is converted by intracellular esterases to CA-074.
Cathepsin B activity in the homogenates were monitored with Z-Arg-Arg-AMC substrate (60 μM) with buffer conditions of 40 mM citrate-phosphate, pH 5.5, 5 mM DTT, 1 mM EDTA, 100 mM NaCl, and 1.2% DMSO, followed by incubation at 37° C. for 30 minutes and reading of AMC fluorescence. CA-074-senstive activity was monitored to indicate cathepsin B activity, since CA-074 is a selective inhibitor of this enzyme (70). Protein content was measured in homogenates with the DC protein assay kit. Cathepsin B specific activity was calculated as nmol AMC/μg/min, and reported as the mean±SD (with analyses for statistical significance, p<0.05 by student's t-test).

T1 sequence (P53634 25-134 limits assumed): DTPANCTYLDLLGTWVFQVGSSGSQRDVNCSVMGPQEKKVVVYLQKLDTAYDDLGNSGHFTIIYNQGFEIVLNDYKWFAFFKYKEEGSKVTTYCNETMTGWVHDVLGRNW
T1 sequence (P53634 231-394 limits assumed): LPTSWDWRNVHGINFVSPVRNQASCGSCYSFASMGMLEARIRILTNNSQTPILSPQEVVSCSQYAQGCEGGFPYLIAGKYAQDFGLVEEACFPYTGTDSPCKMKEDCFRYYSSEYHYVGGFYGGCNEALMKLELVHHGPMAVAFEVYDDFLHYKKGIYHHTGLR
T1 sequence (P53634 395-463 limits assumed): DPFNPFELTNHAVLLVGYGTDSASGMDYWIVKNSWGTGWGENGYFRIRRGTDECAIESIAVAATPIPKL

## Cc1cccc(C)c1C(=O)OCC(=O)C(CCCCN)NC(=O)C(CCCNC(=N)N)NC(=O)OCc1ccccc1 (stereo not drawn) [Z-Arg-Lys-AOMK]
Cathepsin C; cathepsin C, pH 4.6
  IC50: > 16 µM
Cathepsin C; cathepsin C, pH 4.6, 16,000 nM inhibitor
  inhibition at 16 µM: 6%
Cathepsin C; cathepsin C, pH 7.2
  IC50: 0.85 µM
Cathepsin C; pH 4.6, inhibitor at 16 μM
  inhibition of cathepsin C: minimal inhibition
Cathepsin C; pH 7.2, from IC50
  fold more potent for cathepsin B than cathepsin C: 43 fold
Cathepsin H; cathepsin H, pH 4.6
  IC50: > 16 µM
Cathepsin H; cathepsin H, pH 7.2
  IC50: > 16 µM
Cathepsin H; cathepsin H, pH 7.2, 16,000 nM inhibitor
  inhibition at 16 µM: 29%
Cathepsin H; pH 4.6, inhibitor at 16 μM
  inhibition of cathepsin H: no inhibition
Cathepsin H; pH 7.2, inhibitor at 16 μM
  inhibition of cathepsin H: minimally inhibited
Cathepsin K; cathepsin K, pH 4.6
  IC50: > 16 µM
Cathepsin K; cathepsin K, pH 7.2
  IC50: > 16 µM
Cathepsin K; cathepsin K, pH 7.2, 16,000 nM inhibitor
  inhibition at 16 µM: 31%
Cathepsin K; pH 4.6, inhibitor at 16 μM
  inhibition of cathepsin K: no inhibition
Cathepsin K; pH 7.2, inhibitor at 16 μM
  inhibition of cathepsin K: minimally inhibited
Cathepsin S; cathepsin S, pH 4.6
  IC50: > 16 µM
Cathepsin S; cathepsin S, pH 4.6, 16,000 nM inhibitor
  inhibition at 16 µM: 13%
Cathepsin S; pH 4.6, inhibitor at 16 μM
  inhibition of cathepsin S: minimal inhibition
Cathepsin S; pH 7.2, from IC50
  fold more potent for cathepsin B than cathepsin S: 110 fold
Cathepsin V; cathepsin V, pH 4.6
  IC50: > 16 µM
Cathepsin V; cathepsin V, pH 4.6, 16,000 nM inhibitor
  inhibition at 16 µM: 63%
Cathepsin V; cathepsin V, pH 7.2
  IC50: 0.44 µM
Cathepsin V; pH 4.6, inhibitor at 16 μM
  inhibition of cathepsin V: minimal inhibition
Cathepsin V; pH 7.2, from IC50
  fold more potent for cathepsin B than cathepsin V: 22 fold
Cathepsin X; cathepsin X, pH 4.6
  IC50: > 16 µM
Cathepsin X; cathepsin X, pH 4.6, 16,000 nM inhibitor
  inhibition at 16 µM: 21%
Cathepsin X; pH 4.6, inhibitor at 16 μM
  inhibition of cathepsin X: minimal inhibition
[1]; cells incubated with 50 μM inhibitor for 6 hrs, washed, homogenate assayed with Z-Arg-Arg-AMC
  inhibition of cellular cathepsin B activity: completely inhibited
[1]; neuroblastoma cells, 50 μM, 6 hrs
  cell permeability: cell permeable
